Starred links: 1 amine or outer side, 2 acyl side, 3 side chain; linkers in the order of their positions; H or OH if unused. Positions of bridges follow the written chain, without caps; N, C: chain ends. Non-standard residues stand in square brackets, D forms with d. Residues, ends and D or L forms follow the SMILES beside them. N(3-phenylpropyl)Gly = O=C(O)CNCCCc1ccccc1; Phe(4-Et) = CCc1ccc(C[C@H](N)C(=O)O)cc1; X1 = O=C(CN(Cc1ccc(F)c(F)c1)[*:1])[*:2]; X4 = Cc1ccc(CCN(CC(=O)[*:2])[*:1])cc1; cisHyp = O=C(O)[C@@H]1C[C@H](O)CN1; X2 = O=C(CCC[*:2])[*:1]; Mpa = O=C(O)CCS
What was measured:
[1] = molecular target: human vasopressin (hV2) receptor (Homo sapiens, UniProt P30518); assay: luciferase-based transcriptional reporter gene assay expressing the human vasopressin (hV2) receptor; details: for Selectivity hV2/hOT: EC50 ratio hV2/hOT
Protocol: (§1) Agonist activity of compounds on the hOT receptor was determined in a transcriptional reporter gene assay by transiently transfecting a hOT receptor expression DNA into a Chinese Hamster Ovary (CHO) cell line in concert with a reporter DNA containing intracellular calcium responsive promoter elements regulating expression of firefly luciferase.
(§2) The EC50 value given is the geometric mean expressed in nanomol/l (nM). Selectivity values are given as EC50 ratios.

hOT receptor = molecular target: T1, hOT receptor (Homo sapiens, UniProt P30559); assay: transcriptional reporter gene assay (luciferase), agonist activity on hOT receptor in transfected CHO cells
T1 sequence (P30559 1-389): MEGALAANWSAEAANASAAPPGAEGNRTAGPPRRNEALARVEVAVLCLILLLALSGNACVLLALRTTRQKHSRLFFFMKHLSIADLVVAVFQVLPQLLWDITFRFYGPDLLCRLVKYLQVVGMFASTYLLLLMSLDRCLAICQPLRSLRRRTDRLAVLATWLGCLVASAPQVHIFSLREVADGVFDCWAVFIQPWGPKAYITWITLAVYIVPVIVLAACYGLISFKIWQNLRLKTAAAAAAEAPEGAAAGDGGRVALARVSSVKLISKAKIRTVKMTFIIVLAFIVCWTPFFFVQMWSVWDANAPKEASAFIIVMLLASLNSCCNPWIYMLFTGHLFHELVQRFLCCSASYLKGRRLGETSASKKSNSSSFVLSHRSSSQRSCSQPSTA
Protocol: as §1, §2

human vasopressin (hV2) receptor, sequence (P30518 whole entry): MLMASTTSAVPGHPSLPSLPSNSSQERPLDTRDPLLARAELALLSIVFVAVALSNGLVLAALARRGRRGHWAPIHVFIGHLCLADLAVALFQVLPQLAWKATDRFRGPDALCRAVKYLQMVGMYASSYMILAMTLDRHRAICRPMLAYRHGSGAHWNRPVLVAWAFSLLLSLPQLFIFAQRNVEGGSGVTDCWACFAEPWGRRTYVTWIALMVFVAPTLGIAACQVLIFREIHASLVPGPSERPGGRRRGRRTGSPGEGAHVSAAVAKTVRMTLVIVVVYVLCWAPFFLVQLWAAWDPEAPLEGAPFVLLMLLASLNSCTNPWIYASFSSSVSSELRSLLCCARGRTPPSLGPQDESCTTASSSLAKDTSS

| EC50 [1] | Selectivity hV2/hOT [1] | EC50 (hOT receptor) | SMILES |
| --- | --- | --- | --- |
| 159 nM | 2736 | 0.058 nM | CC[C@H](C)[C@@H]1NC(=O)[C@H](Cc2ccc(O)cc2)NC(=O)CCSSC[C@@H](C(=O)N(CCCc2ccccc2)CC(=O)N[C@@H](CC(C)C)C(=O)NCC(N)=O)NC(=O)[C@H](CC(N)=O)NC(=O)[C@H](CCC(N)=O)NC1=O [Compound 25] ([Mpa]YIQNC[N(3-phenylpropyl)Gly]LG-NH2; disulfide 1-6) |
| 102 nM | 2533 | 0.04 nM | CC[C@H](C)[C@@H]1NC(=O)[C@H](Cc2ccc(O)cc2)NC(=O)CCSSC[C@@H](C(=O)N(CCc2ccc(C)cc2)CC(=O)N[C@@H](CC(C)C)C(=O)NCC(N)=O)NC(=O)[C@H](CC(N)=O)NC(=O)[C@H](CCC(N)=O)NC1=O [Compound 15] ([Mpa]YIQNC[X4]LG-NH2; disulfide 1-6) |
| 58.5 nM | 2217 | 0.026 nM | CC[C@H](C)[C@@H]1NC(=O)[C@H](Cc2ccc(O)cc2)NC(=O)CCSSC[C@@H](C(=O)N(CC(=O)N[C@@H](CC(C)C)C(=O)NCC(N)=O)Cc2ccc(F)c(F)c2)NC(=O)[C@H](CC(N)=O)NC(=O)[C@H](CCC(N)=O)NC1=O [Compound 11] ([Mpa]YIQNC[X1]LG-NH2; disulfide 1-6) |
| 39.9 nM | 629 | 0.064 nM | CCc1ccc(C[C@@H]2NC(=O)CCCSC[C@@H](C(=O)N3C[C@@H](O)C[C@H]3C(=O)N[C@@H](CC(C)C)C(=O)NCC(N)=O)NC(=O)[C@H](CC(N)=O)NC(=O)[C@H](CCC(N)=O)NC(=O)[C@H]([C@@H](C)CC)NC2=O)cc1 [Compound 6] ([Phe(4-Et)]IQNC[cisHyp]LG-NH2; linker N-5 via X2) |
